Measurements published in US20100285509A1, “Melanoma-Associated Endogenous Retrovirus (MERV) Derived Peptide Sequences And Their Therapeutic/Diagnostic Use” (priority 2005, published 2010).
Where no end group is shown, it is not given here.

What was measured:
Type in all cases: binding, human
melanoma sera pool [1] = experiment: Epitope screening ELISA of biotinylated peptides with melanoma sera pool; settings: FIG. 2
Method: FIG. 2: Selected candidate peptides by Epitope prediction were tested with a melanoma sera pool and a reference sera pool respectively. The mouse derived control peptides K1 (Biotin-SGSG-KPLAQ-NH2) and K2 (Biotin-SGSG-GLAQ-NH2) were used as negative and positive control peptides. ELISA readout of patient sera pool (black bars) given as absorbance determined at 405 nm. All given A405 nm values refer to the measured A405 nm value of each sample minus the blank.
Serum specimens were collected from melanoma patients (diagnosis confirmed by histopathology) at the Department of Dermatology, Medical University of Vienna, Austria. Staging of patients and according classification of sera followed the 2001 US Joint Committee on Cancer guidelines (Balch 2001). Usage of patient sera was approved by the ethical committee of the Medical University of Vienna, confidentially of the study subjects has been protected by respective sample coding. Sera from healthy donors served as negative controls. All sera were stored at −20° C. immediately after blood withdrawal. Melanoma patient derived sera pools and respective reference sera pools from healthy subjects were used for epitope screening and further peptide testing.
Streptavidin-coated 96-well microtiter plates (Mimotopes Pty Ltd., Australia) were blocked with 200 μl/well of 2% bovine albumine (Sigma-Aldrich) in PBST (PBS [0.1 M sodium phosphate, 0.15 M NaCl, pH 7.0]+0.1% v/v Tween20 (PBST)) over night at 4° C. The wells were then washed four times with PBST and incubated with 100 μl/well of 1:500 diluted biotinylated peptides for 2 hours at room temperature. 2 wells per plate were incubated with PBST in the absence of peptide (blank wells). Plates were washed 4 times with PBST. Subsequently, 100 μl of a melanoma-sera pool, diluted 1:40 in 1% bovine albumine/PBST and a reference serum pool (1:40) were added to each well and incubated for 2 h at room temperature. The plate was washed 4 times with PBST and incubated with 100 μl/well of the secondary antibody: goat anti-human IgG (h+l) antibody alkaline-phosphatase conjugated (BETHYL Laboratories, Inc., USA). Detection antibody was diluted 1:1000 in blocking solution and incubated for 1 hour. After 6 washing steps with PBST, 200 μl of a 1.0 mg/ml p-Nitrophenylphosphat substrate solution in 0.2 M Tris-buffer (Sigma-Aldrich) was added to each well. Absorbance was measured on a BDSL Immunoskan PLUS at 405 nm.
During initial screening of various peptides reactive peptides to the melanoma patient derived sera pool were selected and also validated by determining the reactivity to the reference sera pool obtained from healthy volunteers. […] These peptides were tested to determine the experimental antigenicity.

melanoma sera pool [2] = experiment: Peptide testing ELISA, unbiotinylated peptides coated on Nunc Maxisorp F plates; settings: for absorbance (A405 nm): melanoma sera pool dilution 1:50
Method: FIG. 5: Reactivity of serum antibodies with 2 MERV specfic partial overlapping peptides (GHB-G1 and GHB-H1) and 1 autoimmune-related peptide (GHB-17′) tested with 3 different melanoma-sera and reference sera pool dilutions respectively. An HIV peptide was used as negative control peptide. All given A405 nm values refer to the measured A405 nm value of each sample minus the blank.
NUNC Maxisorp F plates were coated with 1.0 μg peptide/well in 100 μl coating buffer (0.1 M sodium carbonate buffer, pH 9.5). 1 well per plate was coated with 100 μl of coating buffer without antigen (blank well). Plates were incubated over night at 4° C. Then plates were washed four times with PEST. Unspecific binding sites were blocked with 200 μl/well of 2% bovine albumine (Sigma-Aldrich) in PBST (PBS+0.1% v/v Tween20 (PBST)) for 1 hour at room temperature. The plates were washed 4 times with PBST. For the assay 100 μl/well of three different sera pool-dilutions (1:50, 1:200, 1:1600) diluted in 1% bovine albumine/PBST were added and incubated for 2 h at room temperature. Plates were washed 4 times with PBST and incubated with 100 μl/well of the secondary antibody: goat anti-human IgG (h+l) antibody alkaline-phosphatase conjugated, obtained from BETHYL Laboratories, Inc., USA (detection antibody was diluted 1:1000 in blocking solution) for 1 hour. After additional 6 times washing step with PBST, color was developed with 200 μl/well of a 1.0 mg/ml p-Nitrophenylphosphat substrate solution in 0.2 M Tris-buffer (Sigma-Aldrich). Absorbance was measured on a BDSL Immunoskan PLUS at 405 nm.
The peptides were tested with the same sera pools as given for the experiments above. As negative control peptide an HIV-derived peptide ([…]) with 1 μg/well was used.
Herve et al. characterise retroviral peptides in the context of autoimmune diseases. […] All three peptides were tested with three melanoma sera pool dilutions ([…], 1:200 and 1:1600). Peptides were coated on Nunc Maxisorp F plates and used to capture serum antibodies, which were then detected using goat anti-human IgG antibodies as shown in FIG. 5. […] GHB-G1 gave a signal of 1.50 even at a melanoma: sera pool dilution 1:200.

[3] = system: serum samples from melanoma patients; experiment: Optimised ELISA on individual serum samples from melanoma patients; settings: 31 melanoma serum samples; positive = value of 0.39 or above
Method: NUNC Polysorp F Peptide Immobiliser plates were coated with 0.125 μg peptide/well in 100 μl coating buffer ((0.1 M sodium carbonate buffer, pH 9.5). Plates were incubated over night at 4° C. Plates were then washed four times with PBST and unspecific binding sites were blocked with 200 μl/well of 2% bovine albumine (Sigma-Aldrich) in PBST (PBS+0.1% v/v Tween20 (PBST)) for 1 hour at room temperature. The plates were washed 4 times with PBST. For the assay 100 μl/well of serial-dilutions of the sera (initial dilution 1:200 in 1% bovine albumine/PBST were added and incubated for 2 h at room temperature. Plates were washed 4 times with PEST and incubated with the secondary antibody (100 μl/well). As secondary antibody an alkaline-phosphatase conjugated goat anti-human IgG (h+1) (BETHYL Laboratories, Inc., USA) diluted 1:1000 in blocking solution was used. Incubation period was 1 hour. After another 6 washing steps with PBST, the substrate was added (1.0 mg/ml p-Nitrophenylphosphat Sigma-Aldrich) in 0.2 M Tris-buffer 200 μl/well) Absorbance was measured on a BDSL Immunoskan PLUS at 405 nm.
For analysis of serum samples from melanoma patients, Nunc Polysorp Immobilizer Amino plates were used. […] 16 serum samples from healthy individuals served as controls to establish a negative treshold, as calculated by the average absorbance plus three standard deviations. […]

melanoma sera pool [4] = experiment: Epitope mapping ELISA of 25 overlapping env-peptides (FIG. 4); settings: A405 nm melanoma sera pool minus reference sera pool
Text: FIG. 4: Epitope mapping of 25 overlapping env-peptides tested with a patient sera pool and a reference sera pool as described above. The first bar represents amino acid 204-220, the second bar represents amino acid 205-221, etc. Del A405 nm refers to the measured A405 nm values of the melanoma sera pool minus the A405 nm values of the reference sera pool of each peptide. One experiment of two performed is shown. Mean values from duplicate trials are shown.
Streptavidin-coated 96-well microtiter plates (Mimotopes Pty Ltd., Australia) were blocked with 200 μl/well of 2% bovine albumine (Sigma-Aldrich) in PBST (PBS [0.1 M sodium phosphate, 0.15 M NaCl, pH 7.0]+0.1% v/v Tween20 (PBST)) over night at 4° C. The wells were then washed four times with PBST and incubated with 100 μl/well of 1:500 diluted biotinylated peptides for 2 hours at room temperature. 2 wells per plate were incubated with PBST in the absence of peptide (blank wells). Plates were washed 4 times with PBST. Subsequently, 100 μl of a melanoma-sera pool, diluted 1:40 in 1% bovine albumine/PBST and a reference serum pool (1:40) were added to each well and incubated for 2 h at room temperature. […] Absorbance was measured on a BDSL Immunoskan PLUS at 405 nm. […]

Row | Sequence | reactivity ranking among the 46 tested peptides (melanoma sera pool [1]) | absorbance (A405 nm) (melanoma sera pool [2]; FIG. 5) | other results
1 | EMQRKAPPRRRRHRNRA (also: biotinylated (site not given here)) [Peptide A1, Env aa 5-21] | most reactive | – | –
2 | FRPKGKPCPKEIPKESK (also: biotinylated (site not given here)) [Peptide H1, Env aa 220-236] | most reactive | above 0.50 | –
3 | PAELQYRPPPESQYGYP (also: biotinylated (site not given here)) [Peptide E3, Gag aa 219-235] | most reactive | – | –
4 | PWGWGEKGISTPRPKIV (also: biotinylated (site not given here)) [Peptide E2, Env aa 312-328] | most reactive | – | –
5 | SYQRSLKFRPKGKPCPKEIP (Melanoma Associated Endogenous Retrovirus) [SEQ ID NO 69, unbiotinylated 20-mer covering peptides 10-13, env aa 213-232] | – | – | reactivity compared to unbiotinylated 17-mer peptide G1 (melanoma sera pool [2]; unbiotinylated peptides, independent experiment): did not exhibit a significant improvement
6 | YQRSLKFRPKGKPCPKE (Melanoma Associated Endogenous Retrovirus) [Peptide G1, Env aa 214-230] | most reactive | ~1.50 | absorbance signal (A405 nm) (melanoma sera pool [2]; melanoma sera pool dilution 1:200, FIG. 5): 1.50; melanoma sera that did not recognise the epitope [3]: 16; melanoma serum samples reacting positive [3]: 15 out of the 31; reactivity (Del A405 nm) (melanoma sera pool [4]): lower absorbance in the assay than the three neighbour peptides
